# Laboratory results from the supplement of paper PMC7017272.
# ± gives the standard deviation of the averaged measurements.
# Key:
# Experiment in all cases: maximal % inhibition of viability relative to DMSO; higher = stronger effect
# [1] = test system: UT-SCC-28; details: culture condition: plastic 2D (no matrix); treatment time: 3 days
# Method: (§1)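 HNSCC cell lines (500 cells/well, 384-well) were cultured on plastic, on top of (2D) or embedded (3D) in Matrigel or human leiomyoma matrix Myogel (500 ug/mL; Myogel 3D mixed with rat collagen I). Cells were treated for 3 days with 5 ten-fold concentrations of each drug, and viability was read by CellTiter-Glo. Viability was normalised to DMSO and benzethonium chloride controls and fitted with the FIMM DSRT pipeline to give IC50 (nM), maximal % inhibition and DSS. Suffixes _1/_2/_3 are replicates. Only inhibition-mode (IC50) fits are kept.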
# [2] = test system: UT-SCC-8; details: treatment time: 3 days
# Method: as §1
# [3] = test system: UT-SCC-42A; details: treatment time: 3 days
# Method: as §1
# [4] = test system: UT-SCC-14; details: treatment time: 3 days
# Method: as §1
# [5] = test system: UT-SCC-44; details: treatment time: 3 days
# Method: as §1
# [6] = test system: UT-SCC-106A; details: treatment time: 3 days
# Method: as §1
# [7] = test system: UT-SCC-42B; details: treatment time: 3 days
# Method: as §1
# [8] = test system: UT-SCC-73; details: treatment time: 3 days
# Method: as §1
# [9] = test system: UT-SCC-40; details: treatment time: 3 days
# Method: as §1
# [10] = culture condition: embedded in Matrigel
# [11] = culture condition: embedded in Myogel + collagen I
# [12] = culture condition: on top of Matrigel
# [13] = culture condition: on top of Myogel
# [14] = culture condition: plastic 2D (no matrix)
smiles,measurement,setting,value
Cn1cnc2c(F)c(Nc3ccc(Br)cc3Cl)c(C(=O)NOCCO)cc21 [Selumetinib],maximal % inhibition of viability,[1],29.4 ± 9.5%
same,maximal % inhibition of viability,[2]; [10],49.4 ± 8.9%
same,maximal % inhibition of viability,[2]; [11],33.9 ± 6.9%
same,maximal % inhibition of viability,[2]; [12],47.1 ± 5.1%
same,maximal % inhibition of viability,[2]; [13],50.4 ± 5.8%
same,maximal % inhibition of viability,[2]; [14],53.4 ± 9.7%
same,maximal % inhibition of viability,[3]; [10],54.2 ± 7.8%
same,maximal % inhibition of viability,[3]; [11],24.9 ± 13%
same,maximal % inhibition of viability,[3]; [12],55.1 ± 8.1%
same,maximal % inhibition of viability,[3]; [13],40.7 ± 4.6%
same,maximal % inhibition of viability,[3]; [14],50.4 ± 6.9%
same,maximal % inhibition of viability,[4]; [10],31 ± 16%
same,maximal % inhibition of viability,[4]; [11],26.1 ± 7.3%
same,maximal % inhibition of viability,[4]; [12],38.6 ± 9%
same,maximal % inhibition of viability,[4]; [13],32.2 ± 8.8%
same,maximal % inhibition of viability,[4]; [14],35.5 ± 14%
same,maximal % inhibition of viability,[5]; [10],66.5 ± 25%
same,maximal % inhibition of viability,[5]; [11],42.2 ± 0.7%
same,maximal % inhibition of viability,[5]; [12],51.6 ± 3.1%
same,maximal % inhibition of viability,[5]; [13],41.2 ± 5.3%
same,maximal % inhibition of viability,[5]; [14],39.8 ± 1.5%
same,maximal % inhibition of viability,[6]; [10],53.2 ± 6.3%
same,maximal % inhibition of viability,[6]; [11],18.7 ± 4.1%
same,maximal % inhibition of viability,[6]; [12],58.9 ± 5.3%
same,maximal % inhibition of viability,[6]; [13],15.5 ± 4.6%
same,maximal % inhibition of viability,[6]; [14],58.1 ± 4.1%
same,maximal % inhibition of viability,[7]; [10],67.7 ± 7.4%
same,maximal % inhibition of viability,[7]; [12],46.9 ± 14%
same,maximal % inhibition of viability,[7]; [13],17.3 ± 1.7%
same,maximal % inhibition of viability,[7]; [14],25.6 ± 8.1%
same,maximal % inhibition of viability,[8]; [10],81.9 ± 1.5%
same,maximal % inhibition of viability,[8]; [11],54.4 ± 8.1%
same,maximal % inhibition of viability,[8]; [12],80 ± 1.5%
same,maximal % inhibition of viability,[8]; [13],65.4 ± 1.1%
same,maximal % inhibition of viability,[8]; [14],75.3 ± 1.2%
same,maximal % inhibition of viability,[9]; [10],79.8 ± 1.3%
same,maximal % inhibition of viability,[9]; [11],62.5 ± 8%
same,maximal % inhibition of viability,[9]; [12],75.8 ± 3.5%
same,maximal % inhibition of viability,[9]; [13],52.1 ± 3.1%
same,maximal % inhibition of viability,[9]; [14],56.2 ± 5.7%
